Several values for one entry are separate records, joined by “and”; a condition that tells them apart may be missing. Equal values may be shown once.
How the values were obtained:
Assay in all cases: radiometric filter-binding kinase assay, Kinase HotSpot
Conditions in all cases: compound 0.5 µM; ATP 10 µM
TSSK1B (human) = TSSK1B (human) (UniProt Q9BXA7)
NTRK1 (human) = NTRK1 (human) (UniProt P04629)
STK4 (human) = STK4 (human) (UniProt Q13043)
TBK1 (human) = TBK1 (human) (UniProt Q9UHD2)
RPS6KB2 (human) = RPS6KB2 (human) (UniProt Q9UBS0)
RAF1 (human) = RAF1 (human) (UniProt P04049)
FGFR3 (human) = FGFR3 (human) (UniProt P22607)
CSNK1G3 (human) = CSNK1G3 (human) (UniProt Q9Y6M4)
MAPK12 (human) = MAPK12 (human) (UniProt P53778)
WEE1 (human) = WEE1 (human) (UniProt P30291)
ZAP70 (human) = ZAP70 (human) (UniProt P43403)
FYN (human) = FYN (human) (UniProt P06241)
CAMK2D (human) = CAMK2D (human) (UniProt Q13557)
MAPK14 (human) = MAPK14 (human) (UniProt Q16539)
CSNK1D (human) = CSNK1D (human) (UniProt P48730)
MYLK (human) = MYLK (human) (UniProt Q15746)
EPHA6 (human) = EPHA6 (human) (UniProt Q9UF33)
EPHB3 (human) = EPHB3 (human) (UniProt P54753)
PLK3 (human) = PLK3 (human) (UniProt Q9H4B4)
FES (human) = FES (human) (UniProt P07332)
IGF1R (human) = IGF1R (human) (UniProt P08069)
CDC42BPB (human) = CDC42BPB (human) (UniProt Q9Y5S2)
CSNK1G1 (human) = CSNK1G1 (human) (UniProt Q9HCP0)
EPHA8 (human) = EPHA8 (human) (UniProt P29322)
MAP4K4 (human) = MAP4K4 (human) (UniProt O95819)
PDGFRB (human) = PDGFRB (human) (UniProt P09619)
STK16 (human) = STK16 (human) (UniProt O75716)
STK24 (human) = STK24 (human) (UniProt Q9Y6E0)
HIPK2 (human) = HIPK2 (human) (UniProt Q9H2X6)
CAMK2B (human) = CAMK2B (human) (UniProt Q13554)
CDK2 CCNE1 (human) = CDK2 CCNE1 (human) (UniProt P24941+P24864)
MAP3K3 (human) = MAP3K3 (human) (UniProt Q99759)
LYN (human) = LYN (human) (UniProt P07948)
TTK (human) = TTK (human) (UniProt P33981)
SGK3 (human) = SGK3 (human) (UniProt Q96BR1)
EPHA5 (human) = EPHA5 (human) (UniProt P54756)
IKBKB (human) = IKBKB (human) (UniProt O14920)
FER (human) = FER (human) (UniProt P16591)
CDK2 CCNA2 (human) = CDK2 CCNA2 (human) (UniProt P24941+P20248)
MAPKAPK5 (human) = MAPKAPK5 (human) (UniProt Q8IW41)
CAMK1G (human) = CAMK1G (human) (UniProt Q96NX5)
CAMK1D (human) = CAMK1D (human) (UniProt Q8IU85)

Sequence of LYN (human) (P07948 whole entry, looked up): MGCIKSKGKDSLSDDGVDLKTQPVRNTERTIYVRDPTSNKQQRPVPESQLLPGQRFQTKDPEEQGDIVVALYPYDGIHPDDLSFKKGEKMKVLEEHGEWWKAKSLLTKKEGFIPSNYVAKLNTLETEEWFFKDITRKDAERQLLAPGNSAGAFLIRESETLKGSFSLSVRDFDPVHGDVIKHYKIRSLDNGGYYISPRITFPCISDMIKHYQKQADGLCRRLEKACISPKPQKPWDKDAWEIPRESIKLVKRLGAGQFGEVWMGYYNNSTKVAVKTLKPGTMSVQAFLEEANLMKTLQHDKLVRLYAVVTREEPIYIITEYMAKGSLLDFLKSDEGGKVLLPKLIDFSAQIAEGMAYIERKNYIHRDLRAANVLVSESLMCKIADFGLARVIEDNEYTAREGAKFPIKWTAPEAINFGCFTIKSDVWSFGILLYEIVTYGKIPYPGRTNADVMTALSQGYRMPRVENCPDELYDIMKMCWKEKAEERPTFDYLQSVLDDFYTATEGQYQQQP
Sequence of EPHA6 (human) (Q9UF33 whole entry, looked up): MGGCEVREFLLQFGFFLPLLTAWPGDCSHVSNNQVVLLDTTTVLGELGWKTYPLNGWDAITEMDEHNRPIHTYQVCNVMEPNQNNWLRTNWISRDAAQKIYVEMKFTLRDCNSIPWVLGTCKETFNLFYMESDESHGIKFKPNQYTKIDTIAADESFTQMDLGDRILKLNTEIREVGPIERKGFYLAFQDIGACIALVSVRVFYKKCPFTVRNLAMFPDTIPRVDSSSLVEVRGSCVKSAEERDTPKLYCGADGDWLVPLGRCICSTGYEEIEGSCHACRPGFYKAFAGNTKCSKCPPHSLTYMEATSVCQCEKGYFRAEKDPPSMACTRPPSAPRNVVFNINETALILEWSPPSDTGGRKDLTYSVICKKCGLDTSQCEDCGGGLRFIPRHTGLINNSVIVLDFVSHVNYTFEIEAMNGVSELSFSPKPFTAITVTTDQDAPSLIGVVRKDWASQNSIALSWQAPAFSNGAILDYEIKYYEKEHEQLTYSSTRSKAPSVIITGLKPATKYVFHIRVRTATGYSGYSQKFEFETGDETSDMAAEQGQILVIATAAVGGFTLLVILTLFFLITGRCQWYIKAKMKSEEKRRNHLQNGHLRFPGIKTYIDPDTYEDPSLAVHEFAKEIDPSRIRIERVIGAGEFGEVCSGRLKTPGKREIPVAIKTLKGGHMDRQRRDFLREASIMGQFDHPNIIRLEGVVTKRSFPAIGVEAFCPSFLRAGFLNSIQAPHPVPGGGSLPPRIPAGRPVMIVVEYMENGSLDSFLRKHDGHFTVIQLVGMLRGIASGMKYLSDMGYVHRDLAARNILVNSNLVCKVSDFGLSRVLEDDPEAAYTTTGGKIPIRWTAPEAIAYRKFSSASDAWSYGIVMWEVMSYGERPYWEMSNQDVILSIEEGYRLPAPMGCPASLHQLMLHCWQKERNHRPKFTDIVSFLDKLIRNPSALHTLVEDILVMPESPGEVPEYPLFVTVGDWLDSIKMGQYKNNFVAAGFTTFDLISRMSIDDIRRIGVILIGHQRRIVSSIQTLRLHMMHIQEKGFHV
Sequence of MAP4K4 (human) (O95819 whole entry, looked up): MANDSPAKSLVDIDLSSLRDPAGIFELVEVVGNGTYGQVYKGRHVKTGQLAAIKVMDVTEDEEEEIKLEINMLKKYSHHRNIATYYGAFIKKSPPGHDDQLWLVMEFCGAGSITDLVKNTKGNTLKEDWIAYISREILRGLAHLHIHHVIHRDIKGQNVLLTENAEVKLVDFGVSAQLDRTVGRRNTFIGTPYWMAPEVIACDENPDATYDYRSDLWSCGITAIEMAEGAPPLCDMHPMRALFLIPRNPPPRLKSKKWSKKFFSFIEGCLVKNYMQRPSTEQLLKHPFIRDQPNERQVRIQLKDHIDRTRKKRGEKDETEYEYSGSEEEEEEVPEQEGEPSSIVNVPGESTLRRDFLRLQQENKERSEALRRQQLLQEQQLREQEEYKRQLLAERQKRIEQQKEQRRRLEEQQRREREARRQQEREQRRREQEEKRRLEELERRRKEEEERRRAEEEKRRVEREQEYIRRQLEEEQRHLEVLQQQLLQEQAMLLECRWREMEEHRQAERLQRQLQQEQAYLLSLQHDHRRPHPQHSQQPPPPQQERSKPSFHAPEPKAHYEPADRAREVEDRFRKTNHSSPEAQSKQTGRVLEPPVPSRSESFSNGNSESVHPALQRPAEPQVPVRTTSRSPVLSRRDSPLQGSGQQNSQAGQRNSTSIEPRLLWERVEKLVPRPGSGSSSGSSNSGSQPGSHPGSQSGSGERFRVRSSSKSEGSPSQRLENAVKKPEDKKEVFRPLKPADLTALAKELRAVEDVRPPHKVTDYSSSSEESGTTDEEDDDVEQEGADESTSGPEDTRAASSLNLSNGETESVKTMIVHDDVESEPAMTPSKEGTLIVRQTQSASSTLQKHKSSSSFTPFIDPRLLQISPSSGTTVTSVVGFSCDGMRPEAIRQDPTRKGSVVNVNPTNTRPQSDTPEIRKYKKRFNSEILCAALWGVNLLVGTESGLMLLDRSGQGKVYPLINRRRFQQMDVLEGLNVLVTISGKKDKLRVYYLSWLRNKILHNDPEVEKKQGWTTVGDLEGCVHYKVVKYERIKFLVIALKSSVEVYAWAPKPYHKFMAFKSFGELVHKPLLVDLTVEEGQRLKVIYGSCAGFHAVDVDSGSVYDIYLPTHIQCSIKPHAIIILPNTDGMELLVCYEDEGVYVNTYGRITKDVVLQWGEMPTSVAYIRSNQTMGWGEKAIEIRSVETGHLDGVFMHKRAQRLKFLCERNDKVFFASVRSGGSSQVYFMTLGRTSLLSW
Sequence of PDGFRB (human) (P09619 whole entry, looked up): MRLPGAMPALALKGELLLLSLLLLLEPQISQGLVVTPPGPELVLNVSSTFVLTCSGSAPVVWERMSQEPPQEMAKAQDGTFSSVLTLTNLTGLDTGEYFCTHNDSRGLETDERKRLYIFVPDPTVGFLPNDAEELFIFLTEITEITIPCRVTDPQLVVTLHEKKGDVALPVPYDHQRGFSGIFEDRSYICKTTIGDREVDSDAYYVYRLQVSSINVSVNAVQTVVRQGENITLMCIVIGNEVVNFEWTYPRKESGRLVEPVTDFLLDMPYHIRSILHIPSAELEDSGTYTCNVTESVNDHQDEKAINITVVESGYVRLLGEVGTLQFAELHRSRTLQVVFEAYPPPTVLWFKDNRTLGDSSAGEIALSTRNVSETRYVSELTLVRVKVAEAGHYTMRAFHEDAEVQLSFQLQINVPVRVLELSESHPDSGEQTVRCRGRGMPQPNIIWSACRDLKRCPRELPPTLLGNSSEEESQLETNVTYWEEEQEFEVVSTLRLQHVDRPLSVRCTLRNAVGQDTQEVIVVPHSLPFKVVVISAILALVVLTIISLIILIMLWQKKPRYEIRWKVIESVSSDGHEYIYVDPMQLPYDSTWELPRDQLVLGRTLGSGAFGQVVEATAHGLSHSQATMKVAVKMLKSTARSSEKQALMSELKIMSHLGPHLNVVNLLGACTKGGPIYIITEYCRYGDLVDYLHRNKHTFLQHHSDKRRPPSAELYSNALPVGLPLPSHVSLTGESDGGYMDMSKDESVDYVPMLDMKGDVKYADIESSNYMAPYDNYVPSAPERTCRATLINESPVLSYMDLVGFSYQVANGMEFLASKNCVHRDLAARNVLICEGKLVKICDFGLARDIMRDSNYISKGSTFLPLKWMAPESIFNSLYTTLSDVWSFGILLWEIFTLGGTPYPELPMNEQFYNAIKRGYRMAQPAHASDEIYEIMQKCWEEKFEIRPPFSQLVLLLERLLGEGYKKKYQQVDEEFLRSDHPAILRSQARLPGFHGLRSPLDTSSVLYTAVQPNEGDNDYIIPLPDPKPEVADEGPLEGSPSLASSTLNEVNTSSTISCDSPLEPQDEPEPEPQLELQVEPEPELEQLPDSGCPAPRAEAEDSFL
Sequence of FES (human) (P07332 whole entry, looked up): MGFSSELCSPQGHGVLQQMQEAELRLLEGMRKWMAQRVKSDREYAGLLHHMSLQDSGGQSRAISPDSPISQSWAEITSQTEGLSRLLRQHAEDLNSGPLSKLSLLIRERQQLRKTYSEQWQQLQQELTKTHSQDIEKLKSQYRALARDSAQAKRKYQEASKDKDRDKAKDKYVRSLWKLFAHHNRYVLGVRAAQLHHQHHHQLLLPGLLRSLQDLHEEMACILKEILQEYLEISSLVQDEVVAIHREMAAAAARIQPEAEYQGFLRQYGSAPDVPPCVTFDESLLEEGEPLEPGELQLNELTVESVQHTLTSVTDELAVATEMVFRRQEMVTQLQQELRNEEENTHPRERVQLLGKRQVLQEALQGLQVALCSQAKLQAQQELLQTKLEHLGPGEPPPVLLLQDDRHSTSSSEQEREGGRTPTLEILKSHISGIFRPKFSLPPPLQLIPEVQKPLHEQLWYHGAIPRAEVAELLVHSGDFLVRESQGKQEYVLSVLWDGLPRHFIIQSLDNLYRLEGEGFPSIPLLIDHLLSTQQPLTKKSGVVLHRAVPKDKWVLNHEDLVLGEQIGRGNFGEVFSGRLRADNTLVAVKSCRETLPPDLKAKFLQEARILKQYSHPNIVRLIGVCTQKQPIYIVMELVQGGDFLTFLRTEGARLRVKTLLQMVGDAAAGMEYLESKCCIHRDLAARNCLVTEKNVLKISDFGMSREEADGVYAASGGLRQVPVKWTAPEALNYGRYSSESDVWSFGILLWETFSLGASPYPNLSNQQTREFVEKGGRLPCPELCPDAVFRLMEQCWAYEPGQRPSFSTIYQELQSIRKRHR
Sequence of MAPK14 (human) (Q16539 whole entry, looked up): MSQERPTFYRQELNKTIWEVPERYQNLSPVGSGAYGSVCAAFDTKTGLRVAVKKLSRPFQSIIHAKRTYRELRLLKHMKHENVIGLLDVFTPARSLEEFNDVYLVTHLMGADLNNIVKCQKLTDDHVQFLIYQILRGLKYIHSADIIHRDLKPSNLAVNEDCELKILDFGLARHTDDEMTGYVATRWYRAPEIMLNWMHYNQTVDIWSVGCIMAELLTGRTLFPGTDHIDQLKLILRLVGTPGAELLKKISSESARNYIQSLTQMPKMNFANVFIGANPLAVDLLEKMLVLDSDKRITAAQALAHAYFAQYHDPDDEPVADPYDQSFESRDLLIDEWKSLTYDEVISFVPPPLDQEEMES

Work on `O=C1NC(=O)/C(=C/c2ccc3c(c2)OC(F)(F)O3)S1` yielded a residual activity (TSSK1B (human)) of 93.3%, a residual activity (NTRK1 (human)) of 92.5% and a residual activity (STK4 (human)) of 93.3%. For the same compound, the residual activity (TBK1 (human)) was 93.3%, the residual activity (RPS6KB2 (human)) was 101% and the residual activity (RAF1 (human)) was 95.5%. It also gave a residual activity (FGFR3 (human)) of 96.4%, a residual activity (CSNK1G3 (human)) of 91.4% and a residual activity (MAPK12 (human)) of 92.8%. For the same compound, the residual activity (WEE1 (human)) was 88.8%, the residual activity (ZAP70 (human)) was 99.2% and the residual activity (FYN (human)) was 96%. For the same compound, the residual activity (CAMK2D (human)) was 97.1%, the residual activity (MAPK14 (human)) was 86.7% and the residual activity (CSNK1D (human)) was 98.9%. For the same compound, the residual activity (MYLK (human)) was 99.4%, the residual activity (EPHA6 (human)) was 83.1% and the residual activity (EPHB3 (human)) was 93.1%. For the same compound, the residual activity (PLK3 (human)) was 92.4%, the residual activity (FES (human)) was 98.3% and the residual activity (IGF1R (human)) was 101%. The residual activity (CDC42BPB (human)) was 96.4%, the residual activity (CSNK1G1 (human)) was 75.5% and the residual activity (EPHA8 (human)) was 93.8%. The residual activity (MAP4K4 (human)) was 95.3%, the residual activity (PDGFRB (human)) was 97.4% and the residual activity (STK16 (human)) was 91%. The residual activity (STK24 (human)) was 91.9%, the residual activity (HIPK2 (human)) was 104% and the residual activity (CAMK2B (human)) was 99.8%. The residual activity (CDK2 CCNE1 (human)) was 89.9%, the residual activity (MAP3K3 (human)) was 103% and the residual activity (LYN (human)) was 98.1% and 99.9%. It also gave a residual activity (TTK (human)) of 102%, a residual activity (SGK3 (human)) of 94.7% and a residual activity (EPHA5 (human)) of 100%. It also gave a residual activity (IKBKB (human)) of 96.1%, a residual activity (FER (human)) of 97.2% and a residual activity (CDK2 CCNA2 (human)) of 107%. For the same compound, the residual activity (MAPKAPK5 (human)) was 98.2%, the residual activity (CAMK1G (human)) was 107% and the residual activity (CAMK1D (human)) was 83.2%.

`CCN(CC)CCNC(=O)c1c(C)[nH]c(/C=C2\C(=O)Nc3ccc(Cl)cc32)c1C` showed a residual activity (TSSK1B (human)) of 8.45%, a residual activity (NTRK1 (human)) of 8.73% and a residual activity (STK4 (human)) of 2.98%. It also gave a residual activity (TBK1 (human)) of 16.3%, a residual activity (RPS6KB2 (human)) of 91.6% and a residual activity (RAF1 (human)) of 117%. It also gave a residual activity (FGFR3 (human)) of 12.3%, a residual activity (CSNK1G3 (human)) of 47.7% and a residual activity (MAPK12 (human)) of 96.6%. It also gave a residual activity (WEE1 (human)) of 94.8%, a residual activity (ZAP70 (human)) of 91.2% and a residual activity (FYN (human)) of 28.4%. For the same compound, the residual activity (CAMK2D (human)) was 7.25%, the residual activity (MAPK14 (human)) was 103% and the residual activity (CSNK1D (human)) was 49.7%. It also gave a residual activity (MYLK (human)) of 17.6%, a residual activity (EPHA6 (human)) of 45.7% and a residual activity (EPHB3 (human)) of 100%. For the same compound, the residual activity (PLK3 (human)) was 89.8%, the residual activity (FES (human)) was 22.1% and the residual activity (IGF1R (human)) was 35.2%. For the same compound, the residual activity (CDC42BPB (human)) was 96.1%, the residual activity (CSNK1G1 (human)) was 69.2% and the residual activity (EPHA8 (human)) was 99.5%. It also gave a residual activity (MAP4K4 (human)) of 4.33%, a residual activity (PDGFRB (human)) of 9.28% and a residual activity (STK16 (human)) of 72.9%. For the same compound, the residual activity (STK24 (human)) was 22.2%, the residual activity (HIPK2 (human)) was 20% and the residual activity (CAMK2B (human)) was 27.3%. The residual activity (CDK2 CCNE1 (human)) was 90%, the residual activity (MAP3K3 (human)) was 30.6% and the residual activity (LYN (human)) was 21.9% and 6.34%. For the same compound, the residual activity (TTK (human)) was 59.8%, the residual activity (SGK3 (human)) was 103% and the residual activity (EPHA5 (human)) was 90.4%. It also gave a residual activity (IKBKB (human)) of 101%, a residual activity (FER (human)) of 17.7% and a residual activity (CDK2 CCNA2 (human)) of 92.8%. For the same compound, the residual activity (MAPKAPK5 (human)) was 91.6%, the residual activity (CAMK1G (human)) was 49.5% and the residual activity (CAMK1D (human)) was 60.2%.
